In US8895571B2, “Isoindolinone and pyrrolopyridinone derivatives as Akt inhibitors” (Incyte Corporation, priority 2011, dated 2014):

Key:
Type in all cases: biochemical
Full length Akt1 = biological target: T1, Full length Akt1 (Homo sapiens, UniProt P31749); assay: In vitro Akt kinase enzymatic assay (HTRF), Akt1; details: 0.4 nM Akt1, substrate solution with 5 mM ATP, 25° C. 1 hr
T1 construct: Full length Akt1 (cat #P2999); purchased PerkinElmer P2999
Method: (§1) Compounds herein were tested for inhibitory activity of Akt targets according to the following in vitro assay. Full length Akt1 (cat #P2999), Akt2 (cat #PV3184), Akt3 (cat #PV3185), peptide substrate, Ulight-Crosstide (cat #TRF0106-M), Ultra-Europium anti-phospho-Crosstide (cat #TRF-0202-M), and 10×LANCE detection buffer (cat #CR97-100) were purchased from PerkinElmer. In general, assay buffer conditions were chosen based on obtaining optimal enzymatic and linear activities. The assay buffer contains 50 mM HEPES, 10 mM MgCl2, 5 mM DTT, 0.005% Tween20 at pH 7.8. Compound stock (0.001 mM) was prepared in DMSO. The compound plate was prepared by 3-fold and 11-point serial dilutions. 0.5 μL of the compound in DMSO was transferred from the compound plate to the assay plate. Enzyme solution (0.4 nM of Akt1, 0.6 nM of Akt2 or 0.6 nM of Akt3) was prepared in the assay buffer. Note that the enzyme concentration given is based on the given stock concentration reported by the vendor. 0.1 μM substrate solution was prepared in the assay buffer with addition of 5 mM ATP. 10 μL of the enzyme solution was added to the assay plate and then 10 μL of substrate solution was added to the assay plate. The plate was protected from light and the reaction was incubated at 25° C. for 1 hr. The reaction was stopped by adding 10 μL of a solution containing 30 mM EDTA, and 3 nM Ultra Europium anti-phospho Crosstide in 1× detection buffer. The plate was incubated for 15-30 min at room temperature and HTRF (homogenous time resolved fluorescence) was measured on a plate reader. Percentage of inhibition was calculated for each concentration and IC50 value was generated from curve fitting. See Table 8 for data related to compounds of the examples.

Full length Akt2 = biological target: T2, Full length Akt2 (Homo sapiens, UniProt P31751); assay: In vitro Akt kinase enzymatic assay (HTRF), Akt2; details: 0.6 nM Akt2, substrate solution with 5 mM ATP, 25° C. 1 hr
T2 construct: Full length Akt1 (cat #P2999), Akt2 (cat #PV3184); purchased PerkinElmer PV3184
Method: as §1

Full length Akt3 = biological target: T3, Full length Akt3 (Homo sapiens, UniProt Q9Y243); assay: In vitro Akt kinase enzymatic assay (HTRF), Akt3; details: 0.6 nM Akt3, substrate solution with 5 mM ATP, 25° C. 1 hr
T3 construct: Full length Akt1 (cat #P2999), Akt2 (cat #PV3184), Akt3 (cat #PV3185); purchased PerkinElmer PV3185
Method: as §1

Full length PKA = biological target: T4, Full length PKA (Homo sapiens, UniProt P17612); assay: PKA in vitro enzymatic assay (HTRF); details: 0.035 nM enzyme solution, substrate solution with 5 mM ATP, 25° C. 1 hr
T4 construct: Full length PKA (cat #P2912); purchased Invitrogen P2912
Method: Full length PKA (cat #P2912), peptide substrate, fluorescein CREBtide peptide (cat #PV3508), Tb-Crebtide p-S133 Ab (cat #PV3566), and Lanthascreen TR-FRET Dilution Buffer stored (part # PV3574) were purchased from Invitrogen. In general, assay buffer conditions were chosen based on obtaining optimal and linear enzymatic activities. The assay buffer contains 50 mM HEPES, 10 mM MgCl2, 5 mM DTT, 0.005% Tween20 at pH 7.8. Compound stock (0.001 mM) was prepared in DMSO. The compound plate was prepared by 3-fold and 11-point serial dilutions. 0.5 μL of the compound in DMSO was transferred from the compound plate to the assay plate. 0.035 nM enzyme solution was prepared in the assay buffer. Note that the enzyme concentration given is based on the given stock concentration reported by the vendor. 0.1 μM substrate solution was prepared in the assay buffer with addition of 5 mM ATP. 10 μL of the enzyme solution was added to the assay plate and then 10 μL of substrate solution was added to the assay plate. The plate was protected from light and the reaction was incubated at 25° C. for 1 hr. The reaction was stopped by adding 10 μL of a solution containing 30 mM EDTA, and 1.5 nM Tb-Crebtide p-S133 Ab in 1× detection buffer. The plate was incubated for 15-30 min at room temperature and HTRF (homogenous time resolved fluorescence) was measured on a plate reader. Percentage of inhibition was calculated for each concentration and IC50 value was generated from curve fitting. See Table 8 for data related to compounds of the examples.

T1 sequence (P31749 whole entry): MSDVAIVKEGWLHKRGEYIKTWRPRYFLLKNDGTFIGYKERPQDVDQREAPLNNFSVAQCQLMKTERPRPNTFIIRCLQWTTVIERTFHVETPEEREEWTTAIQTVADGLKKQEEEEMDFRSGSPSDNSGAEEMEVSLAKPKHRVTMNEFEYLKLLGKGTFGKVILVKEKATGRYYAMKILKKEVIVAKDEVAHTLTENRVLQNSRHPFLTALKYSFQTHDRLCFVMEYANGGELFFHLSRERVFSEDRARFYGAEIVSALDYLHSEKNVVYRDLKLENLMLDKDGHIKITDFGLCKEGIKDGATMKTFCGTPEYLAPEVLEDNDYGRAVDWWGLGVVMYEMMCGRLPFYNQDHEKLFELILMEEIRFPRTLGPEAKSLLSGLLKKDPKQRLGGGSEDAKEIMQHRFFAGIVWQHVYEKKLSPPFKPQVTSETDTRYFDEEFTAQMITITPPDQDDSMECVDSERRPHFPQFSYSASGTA
T3 sequence (Q9Y243 whole entry): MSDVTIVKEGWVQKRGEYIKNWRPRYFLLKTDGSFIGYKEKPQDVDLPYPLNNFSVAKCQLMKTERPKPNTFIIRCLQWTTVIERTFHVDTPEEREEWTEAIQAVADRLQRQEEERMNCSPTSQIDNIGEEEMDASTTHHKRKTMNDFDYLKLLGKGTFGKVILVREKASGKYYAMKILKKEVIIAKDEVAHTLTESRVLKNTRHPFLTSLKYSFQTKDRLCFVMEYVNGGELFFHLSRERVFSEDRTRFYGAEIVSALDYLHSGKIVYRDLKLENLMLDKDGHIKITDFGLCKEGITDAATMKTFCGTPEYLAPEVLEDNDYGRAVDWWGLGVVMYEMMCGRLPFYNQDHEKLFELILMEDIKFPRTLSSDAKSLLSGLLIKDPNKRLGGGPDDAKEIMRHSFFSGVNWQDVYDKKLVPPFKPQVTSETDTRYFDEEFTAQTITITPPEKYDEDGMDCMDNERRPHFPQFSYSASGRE
T2 sequence (P31751 whole entry): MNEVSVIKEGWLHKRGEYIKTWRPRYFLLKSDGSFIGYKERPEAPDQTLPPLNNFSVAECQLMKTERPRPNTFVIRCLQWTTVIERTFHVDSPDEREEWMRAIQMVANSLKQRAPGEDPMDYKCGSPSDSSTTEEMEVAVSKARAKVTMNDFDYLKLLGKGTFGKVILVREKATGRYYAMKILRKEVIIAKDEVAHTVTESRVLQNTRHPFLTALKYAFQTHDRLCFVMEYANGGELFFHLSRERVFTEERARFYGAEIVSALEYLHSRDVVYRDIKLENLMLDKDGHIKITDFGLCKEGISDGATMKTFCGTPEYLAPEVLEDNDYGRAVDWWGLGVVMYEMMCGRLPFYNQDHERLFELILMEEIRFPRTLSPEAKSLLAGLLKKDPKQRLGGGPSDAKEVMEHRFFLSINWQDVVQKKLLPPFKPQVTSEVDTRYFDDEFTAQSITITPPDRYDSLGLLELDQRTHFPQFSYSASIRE

Cn1ncc(Cl)c1-c1ccc2c(c1)CN([C@H](CNC1CC1)Cc1cccc(F)c1)C2=O [Example 33, 5-(4-chloro-1-methyl-1H-pyrazol-5-yl)-2-[(1S)-2-(cyclopropylamino)-1-(3-fluorobenzyl)ethyl]isoindolin-1-one]
IC50 (Full length Akt1): < 500 nM | IC50 (Full length Akt2): 0.5 to 5 µM | IC50 (Full length Akt3): 0.5 to 5 µM | IC50 (Full length PKA): > 5 µM

Cn1ncc(Cl)c1-c1ccc2c(c1)CN([C@H](CNC1CCC1)Cc1cccc(F)c1)C2=O [Example 34, 5-(4-chloro-1-methyl-1H-pyrazol-5-yl)-2-[(1S)-2-(cyclobutylamino)-1-(3-fluorobenzyl)ethyl]isoindolin-1-one]
IC50 (Full length Akt1): < 500 nM | IC50 (Full length Akt2): 0.5 to 5 µM | IC50 (Full length Akt3): 0.5 to 5 µM | IC50 (Full length PKA): > 5 µM

Cn1ncc(Cl)c1-c1ccc2c(c1)CN([C@H](CNC1CCCC1)Cc1cccc(F)c1)C2=O [Example 35, 5-(4-chloro-1-methyl-1H-pyrazol-5-yl)-2-[(1S)-2-(cyclopentylamino)-1-(3-fluorobenzyl)ethyl]isoindolin-1-one]
IC50 (Full length Akt1): < 500 nM | IC50 (Full length Akt2): 0.5 to 5 µM | IC50 (Full length Akt3): 0.5 to 5 µM | IC50 (Full length PKA): > 5 µM

Cn1ncc(Cl)c1-c1ccc2c(c1)CN([C@H](CNC1CCOCC1)Cc1cccc(F)c1)C2=O [Example 36, 5-(4-chloro-1-methyl-1H-pyrazol-5-yl)-2-[(1S)-1-(3-fluorobenzyl)-2-(tetrahydro-2H-pyran-4-ylamino)ethyl]isoindolin-1-one]
IC50 (Full length Akt1): 500 to 5000 nM | IC50 (Full length Akt2): 0.5 to 5 µM | IC50 (Full length Akt3): > 5 µM | IC50 (Full length PKA): > 5 µM

CN1CCC(NC[C@H](Cc2cccc(F)c2)N2Cc3cc(-c4c(Cl)cnn4C)ccc3C2=O)CC1 [Example 37, 5-(4-chloro-1-methyl-1H-pyrazol-5-yl)-2-{(1S)-1-(3-fluorobenzyl)-2-[(1-methylpiperidin-4-yl)amino]ethyl}isoindolin-1-one]
IC50 (Full length Akt1): < 500 nM | IC50 (Full length Akt2): 0.5 to 5 µM | IC50 (Full length Akt3): 0.5 to 5 µM | IC50 (Full length PKA): > 5 µM

CN(C)C[C@H](Cc1cccc(F)c1)N1Cc2cc(-c3c(Cl)cnn3C)ccc2C1=O [Example 38, 5-(4-chloro-1-methyl-1H-pyrazol-5-yl)-2-[(1S)-2-(dimethylamino)-1-(3-fluorobenzyl)ethyl]isoindolin-1-one]
IC50 (Full length Akt1): 500 to 5000 nM | IC50 (Full length Akt2): > 5 µM | IC50 (Full length Akt3): > 5 µM | IC50 (Full length PKA): > 5 µM

CCN(CC)C[C@H](Cc1cccc(F)c1)N1Cc2cc(-c3c(Cl)cnn3C)ccc2C1=O [Example 39, 5-(4-chloro-1-methyl-1H-pyrazol-5-yl)-2-[(1S)-2-(diethylamino)-1-(3-fluorobenzyl)ethyl]isoindolin-1-one]
IC50 (Full length Akt1): < 500 nM | IC50 (Full length Akt2): > 5 µM | IC50 (Full length Akt3): 0.5 to 5 µM | IC50 (Full length PKA): > 5 µM

CSCc1cnn(C)c1-c1ccc2c(c1)CN([C@H](CN)Cc1ccccc1)C2=O [Example 59, 2-[(1S)-2-amino-1-benzyl-ethyl]-5-[4-(methylthiomethyl)-1-methyl-1H-pyrazol-5-yl]isoindolin-1-one]
IC50 (Full length Akt1): < 500 nM | IC50 (Full length Akt2): 0.5 to 5 µM | IC50 (Full length Akt3): 0.5 to 5 µM | IC50 (Full length PKA): > 5 µM

Cn1ncc(Cl)c1-c1ccc2c(c1)CN([C@H](CN)Cc1ccc(C#N)cc1)C2=O [Example 63, 4-{(2S)-3-amino-2-[5-(4-chloro-1-methyl-1H-pyrazol-5-yl)-1-oxo-1,3-dihydro-2H-isoindol-2-yl]propyl}benzonitrile]
IC50 (Full length Akt1): < 500 nM | IC50 (Full length Akt2): 0.5 to 5 µM | IC50 (Full length Akt3): 0.5 to 5 µM | IC50 (Full length PKA): > 5 µM

COc1cc(C[C@@H](CN)N2Cc3cc(-c4c(Cl)cnn4C)ccc3C2=O)ccn1 [Example 64, 2-{(1S)-2-amino-1-[(2-methoxypyridin-4-yl)methyl]ethyl}-5-(4-chloro-1-methyl-1H-pyrazol-5-yl)isoindolin-1-one]
IC50 (Full length Akt1): 500 to 5000 nM | IC50 (Full length Akt2): > 5 µM | IC50 (Full length Akt3): > 5 µM | IC50 (Full length PKA): > 5 µM

Cn1cc(-c2cccc(C[C@@H](CN)N3Cc4cc(-c5c(Cl)cnn5C)ccc4C3=O)c2)cn1 [Example 70, 2-{(1S)-2-amino-1-[3-(1-methyl-1H-pyrazol-4-yl)benzyl]ethyl}-5-(4-chloro-1-methyl-1H-pyrazol-5-yl)isoindolin-1-one]
IC50 (Full length Akt1): < 500 nM | IC50 (Full length Akt2): > 5 µM | IC50 (Full length Akt3): 0.5 to 5 µM | IC50 (Full length PKA): > 5 µM

Cn1ncc(Cl)c1-c1ccc2c(c1)CN([C@H](CN)Cc1cccc(-c3ccsc3)c1)C2=O [Example 71, 2-{(1S)-2-amino-1-[3-(3-thienyl)benzyl]ethyl}-5-(4-chloro-1-methyl-1H-pyrazol-5-yl)isoindolin-1-one]
IC50 (Full length Akt1): < 500 nM | IC50 (Full length Akt2): 0.5 to 5 µM | IC50 (Full length Akt3): 0.5 to 5 µM | IC50 (Full length PKA): > 5 µM

COc1cc(C[C@@H](CN)N2Cc3cc(-c4ccnn4C)ccc3C2=O)ccn1 [Example 77, 2-{(1S)-2-amino-1-[(2-methoxypyridin-4-yl)methyl]ethyl}-5-(1-methyl-1H-pyrazol-5-yl)isoindolin-1-one]
IC50 (Full length Akt1): 500 to 5000 nM | IC50 (Full length Akt2): > 5 µM | IC50 (Full length Akt3): > 5 µM | IC50 (Full length PKA): > 5 µM

Cn1nccc1-c1ccc2c(c1)CN([C@H](CN)Cc1cscn1)C2=O [Example 82, 2-[(1S)-2-amino-1-(1,3-thiazol-4-ylmethyl)ethyl]-5-(1-methyl-1H-pyrazol-5-yl)isoindolin-1-one]
IC50 (Full length Akt1): < 500 nM | IC50 (Full length Akt2): 0.5 to 5 µM | IC50 (Full length Akt3): 0.5 to 5 µM | IC50 (Full length PKA): > 5 µM

Cn1cc(-c2cccc(C[C@@H](CN)N3Cc4cc(-c5ccnn5C)ccc4C3=O)c2)cn1 [Example 83, 2-{(1S)-2-amino-1-[3-(1-methyl-1H-pyrazol-4-yl)benzyl]ethyl}-5-(1-methyl-1H-pyrazol-5-yl)isoindolin-1-one]
IC50 (Full length Akt1): 500 to 5000 nM | IC50 (Full length Akt2): 0.5 to 5 µM | IC50 (Full length Akt3): > 5 µM | IC50 (Full length PKA): > 5 µM

Cn1nccc1-c1ccc2c(c1)CN([C@H](CN)Cc1cccc(-c3ccsc3)c1)C2=O [Example 84, 2-{(1S)-2-amino-1-[3-(3-thienyl)benzyl]ethyl}-5-(1-methyl-1H-pyrazol-5-yl)isoindolin-1-one]
IC50 (Full length Akt1): < 500 nM | IC50 (Full length Akt2): 0.5 to 5 µM | IC50 (Full length Akt3): 0.5 to 5 µM | IC50 (Full length PKA): > 5 µM

CCCOCc1cnn(C)c1-c1cc2c(cn1)C(=O)N([C@H](CN)Cc1cccc(F)c1)C2 [Example 96, 2-[(1S)-2-amino-1-(3-fluorobenzyl)ethyl]-6-[4-(1-propoxymethyl)-1-methyl-1H-pyrazol-5-yl]-1,2-dihydro-3H-pyrrolo[3,4-c]pyridin-3-one]
IC50 (Full length Akt1): < 500 nM | IC50 (Full length Akt2): < 0.5 µM | IC50 (Full length Akt3): < 0.5 µM | IC50 (Full length PKA): > 5 µM

CCSCc1cnn(C)c1-c1cc2c(cn1)C(=O)N([C@H](CN)Cc1cccc(F)c1)C2 [Example 98, 2-[(1S)-2-amino-1-(3-fluorobenzyl)ethyl]-6-[4-(ethylthiomethyl)-1-methyl-1H-pyrazol-5-yl]-1,2-dihydro-3H-pyrrolo[3,4-c]pyridin-3-one]
IC50 (Full length Akt1): 500 to 5000 nM | IC50 (Full length Akt2): > 5 µM | IC50 (Full length Akt3): 0.5 to 5 µM | IC50 (Full length PKA): > 5 µM

CSCc1cnn(C)c1-c1cc2c(cn1)C(=O)N([C@H](CN)Cc1cccc(F)c1)C2 [Example 99, 2-[(1S)-2-amino-1-(3-fluorobenzyl)ethyl]-6-[4-(methylthiomethyl)-1-methyl-1H-pyrazol-5-yl]-1,2-dihydro-3H-pyrrolo[3,4-c]pyridin-3-one]
IC50 (Full length Akt1): < 500 nM | IC50 (Full length Akt2): 0.5 to 5 µM | IC50 (Full length Akt3): 0.5 to 5 µM | IC50 (Full length PKA): > 5 µM
